Patent US9556201B2, “Bicyclic pyridines and analogs as sirtuin modulators” (GLAXOSMITHKLINE LLC, priority 2009, dated 2017)

Biological target: T1, SIRT1 (Homo sapiens, UniProt Q96EB6)
T1 sequence (Q96EB6 1-747): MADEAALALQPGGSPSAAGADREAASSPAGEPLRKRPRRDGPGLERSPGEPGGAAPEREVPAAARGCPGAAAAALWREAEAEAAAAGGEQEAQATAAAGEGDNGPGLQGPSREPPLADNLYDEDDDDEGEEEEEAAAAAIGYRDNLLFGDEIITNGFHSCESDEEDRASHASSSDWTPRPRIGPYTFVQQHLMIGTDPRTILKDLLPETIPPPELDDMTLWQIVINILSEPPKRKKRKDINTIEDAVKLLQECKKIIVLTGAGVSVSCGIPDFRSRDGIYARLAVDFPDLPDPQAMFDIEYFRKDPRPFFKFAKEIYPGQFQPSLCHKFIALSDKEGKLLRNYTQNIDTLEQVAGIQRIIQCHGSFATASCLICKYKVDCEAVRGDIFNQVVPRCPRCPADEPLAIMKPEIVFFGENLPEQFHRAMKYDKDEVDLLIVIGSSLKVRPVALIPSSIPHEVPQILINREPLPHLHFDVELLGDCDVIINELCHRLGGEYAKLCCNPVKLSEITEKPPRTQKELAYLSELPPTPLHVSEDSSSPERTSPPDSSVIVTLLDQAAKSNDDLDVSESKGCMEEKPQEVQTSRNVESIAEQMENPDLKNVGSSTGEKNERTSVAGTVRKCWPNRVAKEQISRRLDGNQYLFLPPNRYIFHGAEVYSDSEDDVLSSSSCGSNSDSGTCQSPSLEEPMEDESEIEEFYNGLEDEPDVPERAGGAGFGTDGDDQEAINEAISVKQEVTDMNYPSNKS
Assay: Mass spectrometry based assay to identify modulators of SIRT1 activity (deacetylation of p53-based acetylated peptide substrate)
Assay type: biochemical
Settings: for Emax: 25 min, read-out: % FOLD ACT. (percent maximum fold activation); for Emax / EC1.5: SIRT1 activation
From the text: A mass spectrometry based assay was used to identify modulators of SIRT1 activity. The mass spectrometry based assay utilizes a peptide having 20 amino acid residues as follows: Ac-EE-K(biotin)-GQSTSSHSK(Ac)NleSTEG-K(5TMR)-EE-NH2 (SEQ ID NO: 1) wherein K(Ac) is an acetylated lysine residue and Nle is a norleucine. The peptide is labeled with the fluorophore 5TMR (excitation 540 nm/emission 580 nm) at the C-terminus. The sequence of the peptide substrate is based on p53 with several modifications. In addition, the methionine residue naturally present in the sequence was replaced with the norleucine because the methionine may be susceptible to oxidation during synthesis and purification.
The mass spectrometry assay is conducted as follows: […] peptide substrate and 120 μM βNAD^+ is incubated with 10 nM SIRT1 for 25 minutes at 25° C. in a reaction buffer (50 mM Tris-acetate pH 8, 137 mM NaCl, 2.7 mM KCl, 1 mM MgCl2, 5 mM DTT, 0.05% BSA). Test compounds may be added to the reaction as described above. The SirT1 gene is cloned into a T7-promoter containing vector and transformed into BL21(DE3). After the 25 minute incubation with SIRT1, 10 μL of 10% formic acid is added to stop the reaction. Reactions are sealed and frozen for later mass spec analysis. Determination of the mass of the substrate peptide allows for precise determination of the degree of acetylation (i.e. starting material) as compared to deacetylated peptide (product).
A control for inhibition of sirtuin activity is conducted by adding 1 μL of 500 mM nicotinamide as a negative control at the start of the reaction (e.g., permits determination of maximum sirtuin inhibition). A control for activation of sirtuin activity is conducted using 10 nM of sirtuin protein, with 1 μL of DMSO in place of compound, to determine the amount of deacetylation of the substrate at a given timepoint within the linear range of the assay. This timepoint is the same as that used for test compounds and, within the linear range, the endpoint represents a change in velocity.
For the above assay, SIRT1 protein was expressed and purified as follows. The SirT1 gene was cloned into a T7-promoter containing vector and transformed into BL21(DE3). The protein was expressed by induction with 1 mM IPTG as an N-terminal His-tag fusion protein at 18° C. overnight and harvested at 30,000×g. Cells were lysed with lysozyme in lysis buffer (50 mM Tris-HCl, 2 mM Tris[2-carboxyethyl]phosphine (TCEP), 10 μM ZnCl2, 200 mM NaCl) and further treated with sonication for 10 min for complete lysis. The protein was purified over a Ni-NTA column (Amersham) and fractions containing pure protein were pooled, concentrated and run over a sizing column (Sephadex S200 26/60 global). The peak containing soluble protein was collected and run on an Ion-exchange column (MonoQ). Gradient elution (200 mM-500 mM NaCl) yielded pure protein. This protein was concentrated and dialyzed against dialysis buffer (20 mM Tris-HCl, 2 mM TCEP) overnight. The protein was aliquoted and frozen at −80° C. until further use.

Structure (SMILES)	EC1.5 (concentration giving 1.5-fold activation) [nM]	Emax [%]	EC1.5
Cc1cc(NC(=O)N2CCOc3c(N4CCNCC4)nc(-c4cccc(F)c4)nc32)cc(C)n1 [Compound 752]	1000 to 25000	> 200	
CN1C(=O)CN(C(=O)NC2CCOC2=O)c2nc(-c3cccc(C(F)(F)F)c3)ccc21 (stereo not drawn) [Compound 522]		≤ 200	C (EC1.5>25 μM)
O=C(Nc1ccncc1F)N1CCCOc2ccc(-c3cccc(Cl)c3)nc21 [Compound 769]	1000 to 25000	> 200	
O=C(Nc1ccncn1)N1CCOc2ccc(-c3cccnc3)nc21 [Compound 516]		≤ 200	C (EC1.5>25 μM)
Cc1cccc(-c2ccc3c(n2)N(C(=O)Nc2ccncn2)CCO3)c1 [Compound 517]		> 200	A (EC1.5<1.0 μM)
O=C(Nc1ccncc1)N1CCCOc2ccc(-c3cccc(F)c3)nc21 [Compound 550]		> 200	B (EC1.5 1-25 μM)
Cc1cncc(NC(=O)N2CCCOc3ccc(-c4cccc(F)c4)nc32)c1 [Compound 581]		> 200	B (EC1.5 1-25 μM)
O=C(Nc1ccnc(N2CCC2)c1)N1CCOc2ncc(-c3cccc(C(F)(F)F)c3)nc21 [Compound 748]	< 1000	> 200	
O=C(Nc1cncnc1)N1CCCOc2ccc(-c3cccc(Cl)c3)nc21 [Compound 852]	1000 to 25000	> 200	
Cc1csc(NC(=O)N2CCCOc3ccc(-c4cccc(F)c4)nc32)n1 [Compound 583]		> 200	B (EC1.5 1-25 μM)
CCN1CCCN(C(=O)Nc2cccc(OC[C@@H](O)CO)n2)c2nc(-c3cccc(Cl)c3)ccc21 [Compound 796]	1000 to 25000	> 200	
CC1(C)CN(C(=O)Nc2cccnc2)c2nc(-c3cccc(CN4CCCC4)c3)ccc2O1 [Compound 630]		> 200	B (EC1.5 1-25 μM)
Cc1cc(OCC(O)CO)nc(NC(=O)N2CCOc3ccc(-c4cccc(C(F)(F)F)c4)nc32)n1 (stereo not drawn) [Compound 698]	1000 to 25000	≤ 200	
Cc1cnccc1NC(=O)N1CCOc2ccc(-c3cccc(C(F)(F)F)c3)nc21 [Compound 564]		≤ 200	B (EC1.5 1-25 μM)
O=C(NC1(c2ccccn2)CC1)N1CCOc2ccc(-c3cccc(C(F)(F)F)c3)nc21 [Compound 633, N-(1-(pyridin-2-yl)cyclopropyl)-6-(3-(trifluoromethyl)phenyl)-2H-pyrido[3,2-b][1,4]oxazine-4(3H)-carboxamide]		≤ 200	C (EC1.5>25 μM)
Cc1cc(NC(=O)N2CCCOc3ccc(-c4cccc(Cl)c4)nc32)ncc1F [Compound 863]	1000 to 25000	≤ 200	
O=C(Nc1ccc(CN2CCOCC2)nc1)N1CCOc2ccc(-c3cccc(C(F)(F)F)c3)nc21 [Compound 507, N-(6-(morpholinomethyl)pyridin-3-yl)-6-(3-(trifluoromethyl)phenyl)-2H-pyrido[3,2-b][1,4]oxazine-4(3H)-carboxamide]		> 200	A (EC1.5<1.0 μM)
Cc1csc(NC(=O)N2CCC(C)(C)C(=O)c3ccc(-c4cccc(Cl)c4)nc32)n1 [Compound 837]	1000 to 25000	≤ 200	
O=C(Nc1ccc(F)cn1)N1CCCC(F)(F)c2ccc(-c3cccc(Cl)c3)nc21 [Compound 798]	> 25000	≤ 200	
Cc1cncc(NC(=O)N2CCCOc3ccc(-c4cccc(C(F)(F)F)c4)nc32)c1 [Compound 576]		> 200	B (EC1.5 1-25 μM)

Structure (SMILES)	EC1.5 (concentration giving 1.5-fold activation) [nM]	Emax [%]	EC1.5
CCN1C(=O)CCN(C(=O)Nc2ccncc2F)c2nc(-c3cccc(Cl)c3)ccc21 [Compound 774]	> 25000	≤ 200	
O=C(Nc1ccncc1F)N1CCCCc2ccc(-c3cccc(Cl)c3)nc21 [Compound 734]	1000 to 25000	> 200	
O=C1CCCN(C(=O)Nc2ccccn2)c2nc(-c3cccc(C(F)(F)F)c3)ccc21 [Compound 819]	< 1000	> 200	
O=C(Nc1cnccn1)N1CCCOc2ccc(-c3cccc(Cl)c3)nc21 [Compound 866]	1000 to 25000	> 200	
Cc1cnc(NC(=O)N2CCCOc3ccc(-c4cccc(Cl)c4)nc32)s1 [Compound 704]	1000 to 25000	≤ 200	
O=C(c1cccc(OCC(O)CO)c1)N1CCCc2ccc(-c3cccc(C(F)(F)F)c3)nc21 (stereo not drawn) [Compound 642, (3-(2,3-dihydroxypropoxy)phenyl)(7-(3-(trifluoromethyl)phenyl)-3,4-dihydro-1,8-naphthyridin-1(2H)-yl)methanone]		≤ 200	C (EC1.5>25 μM)
Cc1nc(NC(=O)N2CCCOc3ccc(-c4cccc(Cl)c4)nc32)sc1C [Compound 703]	< 1000	> 200	
CCN1C(=O)CCN(C(=O)Nc2cccc(C)n2)c2nc(-c3cccc(Cl)c3)ccc21 [Compound 776]	> 25000	≤ 200	
CN1CCN(C(=O)Nc2cncnc2)c2nc(-c3cccc(C(F)(F)F)c3)ccc21 [Compound 536]		> 200	A (EC1.5<1.0 μM)
CN1C(=O)CN(C(=O)Nc2ccncn2)c2nc(-c3cccc(C(F)(F)F)c3)ccc21 [Compound 526]		> 200	B (EC1.5 1-25 μM)
Cc1cc(-c2ccc3c(n2)N(C(=O)Nc2nc(C)cs2)CCCO3)ccn1 [Compound 676]		> 200	B (EC1.5 1-25 μM)
O=C1CCCN(C(=O)Nc2ccncc2F)c2nc(-c3cccc(Cl)c3)ccc21 [Compound 767]	1000 to 25000	≤ 200	
O=C(Nc1ccnc2cccnc12)N1CCCOc2ccc(-c3cccc(Cl)c3)nc21 [Compound 884]	1000 to 25000	> 200	
CC1(C)CCN(C(=O)Nc2ncccc2F)c2nc(-c3cccc(C(F)(F)F)c3)ccc21 [Compound 842]	1000 to 25000	≤ 200	
O=C(Nc1ccncn1)N1CCCOc2ccc(-c3cccc(N4CCCC4)c3)nc21 [Compound 627]		> 200	B (EC1.5 1-25 μM)
O=C(Nc1ncccc1F)N1CCOc2ccc(-c3cccc(C(F)(F)F)c3)nc21 [Compound 568]		> 200	B (EC1.5 1-25 μM)
O=C(Nc1cncc(OCC(O)CO)n1)N1CCCOc2ccc(-c3cccc(Cl)c3)nc21 (stereo not drawn) [Compound 858]	< 1000	> 200	
Cc1cc(NC(=O)N2CCCC(F)(F)c3ccc(-c4cccc(Cl)c4)nc32)ccn1 [Compound 773]	1000 to 25000	> 200	
Cc1cc(C)c(NC(=O)N2CCOc3ccc(-c4cccc(C(F)(F)F)c4)nc32)cn1 [Compound 553]		≤ 200	B (EC1.5 1-25 μM)
